Source: patent publication US6358885B1, “Substituted phenylheterocyclic herbicides” (Mississippi State University, priority 1992, dated 2002)

Experiments:
Experiment in all cases: Test B preemergence/postemergence greenhouse plant response rating 0 to 10
[1] = test system: velvetleaf; format: in vivo, Abutilon theophrasti; details: for Plant response rating, Velvetleaf: 0 to 10 scale
In short: (§1)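 Postemergence treatment of plants two to eighteen cm tall ran alongside preemergence treatment of planted seed, each using compound in a non-phytotoxic solvent.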

[2] = test system: barley; format: in vivo, Hordeum vulgare; details: for Plant response rating, Barley: 0 to 10 scale
In short: as §1

[3] = test system: rice; format: in vivo, Oryza sativa; details: for Plant response rating, Rice: 0 to 10 scale
In short: as §1

[4] = test system: soybean; format: in vivo, Glycine max; details: for Plant response rating, Soybean: 0 to 10 scale
In short: as §1

[5] = test system: wild oat; format: in vivo, Avena fatua; details: for Plant response rating, Wild oat: 0 to 10 scale
In short: as §1

[6] = test system: rape; format: in vivo, Brassica napus; details: for Plant response rating, Rape: 0 to 10 scale
In short: as §1

[7] = test system: cotton; format: in vivo, Gossypium hirsutum; details: for Plant response rating, Cotton: 0 to 10 scale
In short: as §1

[8] = test system: sorghum; format: in vivo, Sorghum bicolor; details: for Plant response rating, Sorghum: 0 to 10 scale
In short: as §1

[9] = test system: cocklebur; format: in vivo, Xanthium pensylvanicum; details: for Plant response rating, Cocklebur: 0 to 10 scale
In short: as §1

[10] = test system: giant foxtail; format: in vivo, Setaria faberii; details: for Plant response rating, Giant foxtail: 0 to 10 scale
In short: as §1

[11] = test system: wheat; format: in vivo, Triticum aestivum; details: for Plant response rating, Wheat: 0 to 10 scale
In short: as §1

[12] = test system: corn; format: in vivo, Zea mays; details: for Plant response rating, Corn: 0 to 10 scale
In short: as §1

[13] = test system: chickweed; format: in vivo, Stellaria media; details: for Plant response rating, Chickweed: 0 to 10 scale
In short: as §1

[14] = test system: crabgrass; format: in vivo, Digitaria spp.; details: for Plant response rating, Crabgrass: 0 to 10 scale
In short: as §1

[15] = test system: cheatgrass; format: in vivo, Bromus secalinus; details: for Plant response rating, Cheatgrass: 0 to 10 scale
In short: as §1

[16] = test system: purple nutsedge; format: in vivo, Cyperus rotundus; details: for Plant response rating, Nutsedge: 0 to 10 scale
In short: as §1

[17] = test system: bedstraw; format: in vivo, Galium aparine; details: for Plant response rating, Bedstraw: 0 to 10 scale
In short: as §1

[18] = test system: wild buckwheat; format: in vivo, Polygonum convolvulus; details: for Plant response rating, Wild buckwheat: 0 to 10 scale
In short: as §1

[19] = test system: blackgrass; format: in vivo, Alopecurus myosuroides; details: for Plant response rating, Blackgrass: 0 to 10 scale
In short: as §1

[20] = test system: lambsquarters; format: in vivo, Chenopodium album; details: for Plant response rating, Lambsquarter: 0 to 10 scale
In short: as §1

[21] = test system: barnyardgrass; format: in vivo, Echinochloa crus-galli; details: for Plant response rating, Barnyardgrass: 0 to 10 scale
In short: as §1

[22] = test system: sugar beet; format: in vivo, Beta vulgaris; details: for Plant response rating, Sugar beet: 0 to 10 scale
In short: as §1

[23] = test system: morningglory; format: in vivo, Ipomoea hederacea; details: for Plant response rating, Morningglory: 0 to 10 scale
In short: as §1

`CCOC(=O)c1cc(-c2nn3c(c2Cl)CCCC3)c(F)cc1Cl` [Compound 78] was tested, and the “Plant response rating, Velvetleaf” value ([1]; POSTEMERGENCE, Rate 50 g/ha) was 10, the “Plant response rating, Velvetleaf” value ([1]; PREEMERGENCE, Rate 50 g/ha) was 10 and the “Plant response rating (0 to 10 scale), Velvetleaf” value ([1]; PREEMERGENCE, Rate 200 g/ha) was 10. For the same compound, the “Plant response rating, Velvetleaf” value ([1]; Rate 200 g/ha, POSTEMERGENCE) was 10, the “Plant response rating, Barley” value ([2]; POSTEMERGENCE, Rate 50 g/ha) was 3 and the “Plant response rating, Barley” value ([2]; PREEMERGENCE, Rate 50 g/ha) was 2. For the same compound, the “Plant response rating (0 to 10 scale), Barley” value ([2]; PREEMERGENCE, Rate 200 g/ha) was 0, the “Plant response rating, Barley” value ([2]; Rate 200 g/ha, POSTEMERGENCE) was 5 and the “Plant response rating, Rice” value ([3]; POSTEMERGENCE, Rate 50 g/ha) was 3. For the same compound, the “Plant response rating, Rice” value ([3]; PREEMERGENCE, Rate 50 g/ha) was 0, the “Plant response rating (0 to 10 scale), Rice” value ([3]; PREEMERGENCE, Rate 200 g/ha) was 2 and the “Plant response rating, Rice” value ([3]; Rate 200 g/ha, POSTEMERGENCE) was 6. For the same compound, the “Plant response rating, Soybean” value ([4]; POSTEMERGENCE, Rate 50 g/ha) was 10, the “Plant response rating, Soybean” value ([4]; PREEMERGENCE, Rate 50 g/ha) was 0 and the “Plant response rating (0 to 10 scale), Soybean” value ([4]; PREEMERGENCE, Rate 200 g/ha) was 1. The “Plant response rating, Soybean” value ([4]; Rate 200 g/ha, POSTEMERGENCE) was 9, the “Plant response rating, Wild oat” value ([5]; POSTEMERGENCE, Rate 50 g/ha) was 3 and the “Plant response rating, Wild oat” value ([5]; PREEMERGENCE, Rate 50 g/ha) was 3. The “Plant response rating (0 to 10 scale), Wild oat” value ([5]; PREEMERGENCE, Rate 200 g/ha) was 6, the “Plant response rating, Wild oat” value ([5]; Rate 200 g/ha, POSTEMERGENCE) was 5 and the “Plant response rating, Rape” value ([6]; POSTEMERGENCE, Rate 50 g/ha) was 8. The “Plant response rating, Rape” value ([6]; PREEMERGENCE, Rate 50 g/ha) was 4, the “Plant response rating (0 to 10 scale), Rape” value ([6]; PREEMERGENCE, Rate 200 g/ha) was 9 and the “Plant response rating, Rape” value ([6]; Rate 200 g/ha, POSTEMERGENCE) was 10. The “Plant response rating, Cotton” value ([7]; POSTEMERGENCE, Rate 50 g/ha) was 9, the “Plant response rating, Cotton” value ([7]; PREEMERGENCE, Rate 50 g/ha) was 0 and the “Plant response rating (0 to 10 scale), Cotton” value ([7]; PREEMERGENCE, Rate 200 g/ha) was 2. For the same compound, the “Plant response rating, Cotton” value ([7]; Rate 200 g/ha, POSTEMERGENCE) was 10, the “Plant response rating, Sorghum” value ([8]; POSTEMERGENCE, Rate 50 g/ha) was 4 and the “Plant response rating, Sorghum” value ([8]; PREEMERGENCE, Rate 50 g/ha) was 0. For the same compound, the “Plant response rating (0 to 10 scale), Sorghum” value ([8]; PREEMERGENCE, Rate 200 g/ha) was 3, the “Plant response rating, Sorghum” value ([8]; Rate 200 g/ha, POSTEMERGENCE) was 7 and the “Plant response rating, Cocklebur” value ([9]; POSTEMERGENCE, Rate 50 g/ha) was 8. For the same compound, the “Plant response rating, Cocklebur” value ([9]; PREEMERGENCE, Rate 50 g/ha) was 0, the “Plant response rating (0 to 10 scale), Cocklebur” value ([9]; PREEMERGENCE, Rate 200 g/ha) was 0 and the “Plant response rating, Cocklebur” value ([9]; Rate 200 g/ha, POSTEMERGENCE) was 10. For the same compound, the “Plant response rating, Giant foxtail” value ([10]; POSTEMERGENCE, Rate 50 g/ha) was 4, the “Plant response rating, Giant foxtail” value ([10]; PREEMERGENCE, Rate 50 g/ha) was 2 and the “Plant response rating (0 to 10 scale), Giant foxtail” value ([10]; PREEMERGENCE, Rate 200 g/ha) was 9. The “Plant response rating, Giant foxtail” value ([10]; Rate 200 g/ha, POSTEMERGENCE) was 6, the “Plant response rating, Wheat” value ([11]; PREEMERGENCE, Rate 50 g/ha) was 3 and the “Plant response rating (0 to 10 scale), Wheat” value ([11]; PREEMERGENCE, Rate 200 g/ha) was 4. For the same compound, the “Plant response rating, Wheat” value ([11]; Rate 200 g/ha, POSTEMERGENCE) was 7, the “Plant response rating, Corn” value ([12]; POSTEMERGENCE, Rate 50 g/ha) was 7 and the “Plant response rating, Corn” value ([12]; PREEMERGENCE, Rate 50 g/ha) was 0. For the same compound, the “Plant response rating (0 to 10 scale), Corn” value ([12]; PREEMERGENCE, Rate 200 g/ha) was 0, the “Plant response rating, Corn” value ([12]; Rate 200 g/ha, POSTEMERGENCE) was 9 and the “Plant response rating, Chickweed” value ([13]; POSTEMERGENCE, Rate 50 g/ha) was 6. The “Plant response rating, Chickweed” value ([13]; PREEMERGENCE, Rate 50 g/ha) was 6, the “Plant response rating (0 to 10 scale), Chickweed” value ([13]; PREEMERGENCE, Rate 200 g/ha) was 8 and the “Plant response rating, Chickweed” value ([13]; Rate 200 g/ha, POSTEMERGENCE) was 10. For the same compound, the “Plant response rating, Crabgrass” value ([14]; POSTEMERGENCE, Rate 50 g/ha) was 4, the “Plant response rating, Crabgrass” value ([14]; PREEMERGENCE, Rate 50 g/ha) was 2 and the “Plant response rating (0 to 10 scale), Crabgrass” value ([14]; PREEMERGENCE, Rate 200 g/ha) was 8. For the same compound, the “Plant response rating, Crabgrass” value ([14]; Rate 200 g/ha, POSTEMERGENCE) was 5, the “Plant response rating, Cheatgrass” value ([15]; POSTEMERGENCE, Rate 50 g/ha) was 2 and the “Plant response rating, Cheatgrass” value ([15]; PREEMERGENCE, Rate 50 g/ha) was 2. For the same compound, the “Plant response rating (0 to 10 scale), Cheatgrass” value ([15]; PREEMERGENCE, Rate 200 g/ha) was 4, the “Plant response rating, Cheatgrass” value ([15]; Rate 200 g/ha, POSTEMERGENCE) was 7 and the “Plant response rating, Nutsedge” value ([16]; POSTEMERGENCE, Rate 50 g/ha) was 1. For the same compound, the “Plant response rating, Nutsedge” value ([16]; PREEMERGENCE, Rate 50 g/ha) was 0, the “Plant response rating (0 to 10 scale), Nutsedge” value ([16]; PREEMERGENCE, Rate 200 g/ha) was 0 and the “Plant response rating, Nutsedge” value ([16]; Rate 200 g/ha, POSTEMERGENCE) was 2. The “Plant response rating, Bedstraw” value ([17]; POSTEMERGENCE, Rate 50 g/ha) was 6, the “Plant response rating, Bedstraw” value ([17]; PREEMERGENCE, Rate 50 g/ha) was 2 and the “Plant response rating (0 to 10 scale), Bedstraw” value ([17]; PREEMERGENCE, Rate 200 g/ha) was 9. The “Plant response rating, Bedstraw” value ([17]; Rate 200 g/ha, POSTEMERGENCE) was 9, the “Plant response rating, Wild buckwheat” value ([18]; POSTEMERGENCE, Rate 50 g/ha) was 10 and the “Plant response rating, Wild buckwheat” value ([18]; PREEMERGENCE, Rate 50 g/ha) was 9. For the same compound, the “Plant response rating (0 to 10 scale), Wild buckwheat” value ([18]; PREEMERGENCE, Rate 200 g/ha) was 10, the “Plant response rating, Wild buckwheat” value ([18]; Rate 200 g/ha, POSTEMERGENCE) was 10 and the “Plant response rating, Blackgrass” value ([19]; POSTEMERGENCE, Rate 50 g/ha) was 4. The “Plant response rating, Blackgrass” value ([19]; PREEMERGENCE, Rate 50 g/ha) was 4, the “Plant response rating (0 to 10 scale), Blackgrass” value ([19]; PREEMERGENCE, Rate 200 g/ha) was 7 and the “Plant response rating, Blackgrass” value ([19]; Rate 200 g/ha, POSTEMERGENCE) was 7. For the same compound, the “Plant response rating, Lambsquarter” value ([20]; POSTEMERGENCE, Rate 50 g/ha) was 10, the “Plant response rating, Lambsquarter” value ([20]; PREEMERGENCE, Rate 50 g/ha) was 10 and the “Plant response rating (0 to 10 scale), Lambsquarter” value ([20]; PREEMERGENCE, Rate 200 g/ha) was 10. The “Plant response rating, Lambsquarter” value ([20]; Rate 200 g/ha, POSTEMERGENCE) was 10, the “Plant response rating, Barnyardgrass” value ([21]; POSTEMERGENCE, Rate 50 g/ha) was 8 and the “Plant response rating, Barnyardgrass” value ([21]; PREEMERGENCE, Rate 50 g/ha) was 2. For the same compound, the “Plant response rating (0 to 10 scale), Barnyardgrass” value ([21]; PREEMERGENCE, Rate 200 g/ha) was 6, the “Plant response rating, Barnyardgrass” value ([21]; Rate 200 g/ha, POSTEMERGENCE) was 9 and the “Plant response rating, Sugar beet” value ([22]; POSTEMERGENCE, Rate 50 g/ha) was 10. The “Plant response rating, Sugar beet” value ([22]; PREEMERGENCE, Rate 50 g/ha) was 9, the “Plant response rating (0 to 10 scale), Sugar beet” value ([22]; PREEMERGENCE, Rate 200 g/ha) was 10 and the “Plant response rating, Sugar beet” value ([22]; Rate 200 g/ha, POSTEMERGENCE) was 10. The “Plant response rating, Morningglory” value ([23]; POSTEMERGENCE, Rate 50 g/ha) was 10, the “Plant response rating, Morningglory” value ([23]; PREEMERGENCE, Rate 50 g/ha) was 0 and the “Plant response rating (0 to 10 scale), Morningglory” value ([23]; PREEMERGENCE, Rate 200 g/ha) was 10. The “Plant response rating, Morningglory” value ([23]; Rate 200 g/ha, POSTEMERGENCE) was 10.
